In test [1] the target is mTOR (Homo sapiens, UniProt P42345). The test is described as follows: mTOR assay (phosphorylation of 4eBP1, [γ33P]-ATP filter plate). The test is classed as biochemical. The conditions noted are these: 10 μM ATP, 1 hour at room temperature.
The subject of test [2] is PC3. Kind of test: Cell-based proliferation assay, PC3. The conditions noted are these: Homo sapiens, PC-3; PC3 cells, 96 h treatment. How it is done:
(§1) Human cancer cell lines PC3 and DU145 (human prostate cancer cell lines), were obtained from ATCC. They were cultured in the media according to the ATCC work instructions. PC3 and DU145 cells were seeded at 1,000 cells per well in 96-well plates, respectively. The plates were incubated at 37° C., 5% CO2, for 24 h. Cells were treated with compounds at various concentrations for 96 h. Cell proliferation was then quantified using Celltiter96 Aqueous One Solution Cell Proliferation Assay from Promega (Madison Wis.). Dose response curves were plotted to determine IC50 values for the compounds using XL-fit (ID Business Solution, Emeryville, Calif.).

Test [3] has as its target T1, PI3K p110α/p85 (Homo sapiens, UniProt P42336).
T1 construct: made in house
Kind of test: PI3K assay ([γ33P]ATP, PtdIns/PtdSer coated plates). Format: biochemical. The note with it: 2 μM ATP, 1 hour at RT; read-out: IC50 (PI3Kα).

Test [4] has as its system DU145. The test is described as follows: Cell-based proliferation assay, DU145. The conditions noted are these: Homo sapiens, DU-145; DU145 cells, 96 h treatment. How it is done: as §1
In test [5] the test system is human breast cancer cell lines. The note with it: six of eight cancer lines inhibited; cited from earlier work.

These results are taken from US20110009403A1, “2-MORPHOLINYLPURINES AS INHIBITORS OF PI3K” (S*BIO Pte Ltd., priority 2007, published 2011).

T1 sequence (P42336 whole entry): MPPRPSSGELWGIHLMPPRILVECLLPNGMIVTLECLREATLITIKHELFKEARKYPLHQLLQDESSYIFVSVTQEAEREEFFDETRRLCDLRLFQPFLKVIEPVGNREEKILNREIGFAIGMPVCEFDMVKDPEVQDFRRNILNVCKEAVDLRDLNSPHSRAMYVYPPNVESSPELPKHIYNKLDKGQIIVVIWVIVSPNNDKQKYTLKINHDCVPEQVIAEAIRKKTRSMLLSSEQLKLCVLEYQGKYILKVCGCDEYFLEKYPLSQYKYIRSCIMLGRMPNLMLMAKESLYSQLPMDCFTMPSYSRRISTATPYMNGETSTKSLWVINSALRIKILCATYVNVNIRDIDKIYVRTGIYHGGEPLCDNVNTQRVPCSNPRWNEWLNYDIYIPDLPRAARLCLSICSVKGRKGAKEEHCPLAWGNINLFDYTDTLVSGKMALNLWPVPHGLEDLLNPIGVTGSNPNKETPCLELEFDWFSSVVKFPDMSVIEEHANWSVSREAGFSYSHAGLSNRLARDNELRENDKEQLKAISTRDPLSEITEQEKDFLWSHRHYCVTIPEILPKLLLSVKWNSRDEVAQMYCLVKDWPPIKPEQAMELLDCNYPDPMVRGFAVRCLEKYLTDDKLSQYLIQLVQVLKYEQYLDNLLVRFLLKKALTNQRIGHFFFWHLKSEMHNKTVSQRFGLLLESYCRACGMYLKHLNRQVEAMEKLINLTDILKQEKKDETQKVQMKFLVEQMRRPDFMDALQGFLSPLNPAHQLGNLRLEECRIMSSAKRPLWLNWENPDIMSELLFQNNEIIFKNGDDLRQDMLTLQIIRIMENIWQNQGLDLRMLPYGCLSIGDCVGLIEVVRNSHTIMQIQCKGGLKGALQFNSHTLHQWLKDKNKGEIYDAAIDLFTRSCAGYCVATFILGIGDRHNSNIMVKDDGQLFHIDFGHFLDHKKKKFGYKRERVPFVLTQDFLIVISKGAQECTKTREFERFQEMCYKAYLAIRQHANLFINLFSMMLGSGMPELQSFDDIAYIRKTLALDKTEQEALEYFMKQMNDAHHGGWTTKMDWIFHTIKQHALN
T1 sequence (P27986 whole entry partner): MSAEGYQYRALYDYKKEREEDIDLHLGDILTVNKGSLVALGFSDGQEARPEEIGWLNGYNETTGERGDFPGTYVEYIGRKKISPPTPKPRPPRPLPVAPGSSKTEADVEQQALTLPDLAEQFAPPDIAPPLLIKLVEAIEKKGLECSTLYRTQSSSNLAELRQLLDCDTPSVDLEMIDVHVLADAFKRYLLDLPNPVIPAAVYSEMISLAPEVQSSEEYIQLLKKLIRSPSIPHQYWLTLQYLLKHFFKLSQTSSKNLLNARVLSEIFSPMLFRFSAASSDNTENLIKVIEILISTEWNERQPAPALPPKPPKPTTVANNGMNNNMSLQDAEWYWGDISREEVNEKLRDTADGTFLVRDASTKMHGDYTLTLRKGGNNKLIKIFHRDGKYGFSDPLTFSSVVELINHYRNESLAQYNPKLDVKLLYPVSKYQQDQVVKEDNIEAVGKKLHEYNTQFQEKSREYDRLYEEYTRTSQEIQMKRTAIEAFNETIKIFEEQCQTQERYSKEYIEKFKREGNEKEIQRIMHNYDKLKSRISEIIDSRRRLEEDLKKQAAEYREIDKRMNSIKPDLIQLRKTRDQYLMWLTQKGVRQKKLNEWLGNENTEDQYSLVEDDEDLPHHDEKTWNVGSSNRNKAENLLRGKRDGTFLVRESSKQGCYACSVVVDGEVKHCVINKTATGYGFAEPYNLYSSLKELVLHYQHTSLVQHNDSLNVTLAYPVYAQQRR
mTOR, sequence (P42345 1382-2549 limits assumed): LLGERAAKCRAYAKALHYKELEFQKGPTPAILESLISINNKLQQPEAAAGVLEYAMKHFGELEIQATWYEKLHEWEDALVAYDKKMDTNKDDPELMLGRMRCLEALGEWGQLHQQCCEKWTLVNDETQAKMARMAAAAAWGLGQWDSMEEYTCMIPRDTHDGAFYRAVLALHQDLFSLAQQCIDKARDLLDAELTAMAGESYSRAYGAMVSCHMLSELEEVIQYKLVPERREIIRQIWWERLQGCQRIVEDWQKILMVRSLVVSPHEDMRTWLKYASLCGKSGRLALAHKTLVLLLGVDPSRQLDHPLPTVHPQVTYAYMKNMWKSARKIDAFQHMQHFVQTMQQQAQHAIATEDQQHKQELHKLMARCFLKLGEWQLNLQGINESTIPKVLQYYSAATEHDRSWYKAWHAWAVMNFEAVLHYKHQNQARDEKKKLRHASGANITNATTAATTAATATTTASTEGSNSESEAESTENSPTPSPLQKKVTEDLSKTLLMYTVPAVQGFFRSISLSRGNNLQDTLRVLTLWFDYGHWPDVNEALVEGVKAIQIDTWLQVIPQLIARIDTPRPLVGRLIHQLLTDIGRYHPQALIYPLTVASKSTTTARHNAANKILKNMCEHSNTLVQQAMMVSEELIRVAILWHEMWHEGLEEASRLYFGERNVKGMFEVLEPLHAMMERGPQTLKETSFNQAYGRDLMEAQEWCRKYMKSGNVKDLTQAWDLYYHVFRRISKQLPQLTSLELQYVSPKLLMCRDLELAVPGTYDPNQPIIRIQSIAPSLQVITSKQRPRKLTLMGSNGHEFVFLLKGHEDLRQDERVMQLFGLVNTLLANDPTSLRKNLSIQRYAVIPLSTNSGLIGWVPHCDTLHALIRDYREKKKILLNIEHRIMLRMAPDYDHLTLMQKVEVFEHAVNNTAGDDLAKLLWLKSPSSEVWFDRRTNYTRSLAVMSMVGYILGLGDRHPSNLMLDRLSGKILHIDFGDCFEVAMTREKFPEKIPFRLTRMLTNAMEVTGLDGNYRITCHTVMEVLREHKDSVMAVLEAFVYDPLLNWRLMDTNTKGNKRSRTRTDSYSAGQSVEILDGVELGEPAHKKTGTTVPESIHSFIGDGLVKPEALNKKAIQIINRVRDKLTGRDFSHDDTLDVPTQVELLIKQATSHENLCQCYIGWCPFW

Regarding `Cc1cccc(-n2cnc3c(-c4cccc(O)c4)nc(N4CCOCC4)nc32)c1` [Compound 27, 3-(2-Morpholin-4-yl-9-(3-methylphenyl)-9H-purin-6-yl)-phenol], the IC50 in test [1] was less than 1000 nM; in test [2] it was not above 1000 nM; in test [3] it was less than 1000 nM.

As to `Oc1cccc(-c2nc(N3CCOCC3)nc3c2ncn3C2CCCC2)c1` [Compound 54], the IC50 in test [1] is less than 1000 nM; in test [2], not above 1000 nM; in test [4] it was not above 1000 nM; in test [3] it was less than 1000 nM.

On to `c1cc(-c2nc(N3CCOCC3)nc3c2ncn3C2CCCC2)c2cc[nH]c2c1` [Compound 63], for which the IC50 in test [1] was less than 1000 nM; in test [4], 1000 to 5000 nM; in test [3], less than 1000 nM.

On to `c1cc(-c2nc(N3CCOCC3)nc3c2ncn3CC2CC2)c2cc[nH]c2c1` [Compound 51], for which the IC50 in test [1] was less than 1000 nM; in test [4], 1000 to 5000 nM; in test [3], less than 1000 nM.

As for `CO[C@H]1C[C@@H]2CC[C@@H](C)[C@@](O)(O2)C(=O)C(=O)N2CCCC[C@H]2C(=O)O[C@H]([C@H](C)C[C@@H]2CC[C@@H](OC(=O)C(C)(CO)CO)[C@H](OC)C2)CC(=O)[C@H](C)/C=C(\C)[C@@H](O)[C@@H](OC)C(=O)[C@H](C)C[C@H](C)/C=C/C=C/C=C/1C` [CCI-779], the 50% inhibitory concentration (IC50) result in test [5] was “low nanomolar range”.

As for `CC(C)C(C)n1cnc2c(-c3cccc4[nH]ccc34)nc(N3CCOCC3)nc21` (centres unmarked) [Compound 101], the IC50 was less than 1000 nM in test [1], not above 1000 nM in test [2] and less than 1000 nM in test [3].

As usually defined, the IC50 is the concentration at which inhibition is half-maximal.
